Patent US20050234065A1, “Dipeptidyl peptidase-IV inhibitors” (Pfizer Inc, priority 2004, published 2005)
“And” between values parts separate entries of the source, which are not always exact repeats. Equal values may be shown once. Where a name gives a salt, the structure may show the parent alone.

Assays:
[1] = target: T1, DPP-IV (Homo sapiens, UniProt P27487); experiment: In vitro assay for dipeptidyl peptidase inhibition; assay type: biochemical; settings: hydrochloride salts; Gly-Pro-4-methoxy B naphthylamide substrate; overnight at 37° C.; read-out: IC50 (concentration of test compound required for 50% inhibition)
T1 construct: purchased Enzyme Systems Products SPE-01
Description: 150 μL of an enzyme-substrate solution was pipetted into microtiter wells of a polystyrene 96-well plate, and maintained at 4° C. The enzyme-substrate solution comprised 50 μM Gly-Pro-4-methoxy B naphthylamide HCl in 50 mM Tris assay buffer pH 7.3 containing 0.1M sodium chloride, 0.1% (v/v) Triton and 50 μU/mL DPP-IV (Enzyme Systems Products Cat#SPE-01, DPP-IV 5 mU/mL stock). 5 μL/well of compounds of Formula (I) were added, bringing the final compound of Formula (I) concentrations to 3 μM-10 nM per well.
Controls. Enzyme was omitted from four (4) wells, as a reagent blank. 5 μL of 3 mM Diprotin A was added to four wells as a positive quality control, providing a final Diprotin A concentration of 100 μM. To measure total enzyme activity (i.e. a negative control), without the influence of any compounds of Formula (I), 5 μL of distilled water was added to four wells.
The entire assay was incubated overnight (about 14-18 hours) at 37° C.

[2] = Madin-Darby Canine Kidney Cells (MDCK) permeability assay; assay type: in vitro ADME; settings: dog, apparent permeability, apical to basolateral
Description: Drug permeability through MDCK cell monolayers is known to be a useful tool as a model for cellular barrier for assessing intestinal epithelial drug transport, and thus to estimate intestinal permeability for orally administered compounds.
In this assay, monolayer cultures, suitable for investigation of compound permeability, were grown on Falcon/BD 96-well membrane inserts. The monolayers were maintained at 37° C. in a 5% CO2 atmosphere at 95% relative humidity until confluent. Apparent permeabilities of test compounds were determined in duplicate at a single concentration of 2 μM in the apical to basolateral direction. The transport investigations were initiated by the addition of the compound (2 μM of a solution containing 0.4% DMSO) to the apical compartment and the plates were maintained under culture conditions during the course of the experiment. The basolateral compartments following 2.5 hours of exposure and the final apical compartments were collected and analyzed for compound content by LC-MS/MS. The apparent permeability of each compound was then calculated.
Compounds of the present invention, such as those of Examples 18 and 27 were used in this assay. By comparison, comparison DPP-IV inhibitor compounds, which are generically disclosed in International Application WO02/076450, were also synthesized, and then used in this assay.

[3] = test system: KK/H1J mice; experiment: In vivo assay for glucose lowering (oral glucose tolerance test); settings: fasted KK/H1J mice
Excerpt: The glucose lowering effects of DPP-IV inhibitors for some compounds of the present invention were exemplified in 4-6 week old KK/H1J mice (Jackson Labs) in the context of an oral glucose tolerance test. Oral glucose tolerance tests (“OGTT”) have been in use in humans since, at least, the 1930s, Pincus et al., Am. J. Med. Sci, 188: 782 (1934), and are routinely used in the diagnosis of human diabetes, though not to evaluate the efficacy of therapeutic agents in patients. KK mice have been used to evaluate glitazones (Fujita et al. Diabetes 32:804-810 (1983); Fujiwara et al., Diabetes 37: 1549-48 (1988); Izumi et al. Biopharm Drug. Dispos. 18:247-257 (1997)), metformin (Reddi et al. Diabet. Metabl. 19:44-51 (1993)), glucosidase inhibitors (Hamada et al. Jap. Pharmacol. Ther. 17:17-28 (1988); Matsuo et al. Am. J. Clin. Nutr. 55:314S-317S (1992)), and the extra-pancreatic effects of sulfonylureas (Kameda et al Arzneim. Forsch./Drug Res. 32:39044 (1982); Muller et al. Horm. Metabl. Res. 28:469-487 (1996)).
KK mice are derived from an inbred line first established by Kondo et al. (Kondo et al. Bull. Exp. Anim. 6:107-112 (1957)).
The mice were fasted overnight (about 14-18 hours), but allowed free access to water. […] The blood samples were centrifuged, the plasma collected and analyzed for glucose content on a Roche-Hitachi 912 glucose analyzer. […]

T1 sequence (P27487 whole entry, species assumed): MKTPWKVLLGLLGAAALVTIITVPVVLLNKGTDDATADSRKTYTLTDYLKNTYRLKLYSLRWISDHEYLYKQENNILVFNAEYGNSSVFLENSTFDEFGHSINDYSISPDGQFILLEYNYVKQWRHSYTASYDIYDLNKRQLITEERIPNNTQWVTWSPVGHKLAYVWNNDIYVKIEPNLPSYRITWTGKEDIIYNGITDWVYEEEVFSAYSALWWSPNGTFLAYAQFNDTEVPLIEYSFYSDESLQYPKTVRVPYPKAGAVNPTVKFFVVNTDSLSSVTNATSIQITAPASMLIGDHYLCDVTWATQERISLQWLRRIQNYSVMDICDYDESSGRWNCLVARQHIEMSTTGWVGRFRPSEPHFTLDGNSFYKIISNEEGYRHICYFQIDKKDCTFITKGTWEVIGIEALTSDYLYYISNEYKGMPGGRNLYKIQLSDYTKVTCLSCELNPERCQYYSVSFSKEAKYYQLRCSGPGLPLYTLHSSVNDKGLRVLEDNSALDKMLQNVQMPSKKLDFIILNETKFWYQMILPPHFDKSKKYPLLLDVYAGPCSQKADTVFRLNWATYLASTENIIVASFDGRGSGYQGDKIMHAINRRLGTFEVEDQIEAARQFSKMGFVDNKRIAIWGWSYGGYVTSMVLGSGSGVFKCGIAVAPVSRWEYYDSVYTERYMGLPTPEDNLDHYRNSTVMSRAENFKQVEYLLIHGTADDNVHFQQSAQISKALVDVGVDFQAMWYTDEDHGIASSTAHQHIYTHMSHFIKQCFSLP

IC50 [1] | Papp A→B at 2.5 h, 2 μM [2] [×10⁻⁶ cm/s] | Compound | other results
 |  | Nc1nccnc1C(=O)N[C@H]1CC[C@H]([C@H](N)C(=O)N2CCSC2)CC1 (as salt: hydrochloride) [Example 35, (S)-3-amino-pyrazine-2-carboxylic acid [trans-4-(1-amino-2-oxo-2-thiazolidin-3-yl-ethyl)-cyclohexyl]-amide] | melting point: 133.4 to 134.7 °C
≤ 100 nM | 4.8 | Nc1nccnc1C(=O)N[C@H]1CC[C@H]([C@H](N)C(=O)N2CCCC2)CC1 [Example 18, (S)-3-amino-pyrazine-2-carboxylic acid [trans-4-(1-Amino-2-oxo-2-pyrrolidin-1-yl-ethyl)-cyclohexyl]-amide] | 
18 nM and ≤ 100 nM |  | N[C@H](C(=O)N1CCCC1)[C@H]1CC[C@H](N2C(=O)c3ccncc3C2=O)CC1 [Example 23, 2-[trans-4-((1S)-1-amino-2-oxo-2-pyrrolidin-1-yl-ethyl)-cyclohexyl]-pyrrolo[3,4-c]pyridine-1,3-dione] | percent (%) inhibition of glucose excursion ([3]; oral dose level of 5 mg/kg, plasma glucose at t=45 minutes): about 65%
≤ 100 nM |  | N[C@H](C(=O)N1CCCC1)[C@H]1CC[C@H](NC(=O)[C@@H]2C[C@@H](O)CN2C(=O)NCc2ccccc2)CC1 [Example 26, (2S,4R)-4-hydroxy-pyrrolidine-1,2-dicarboxylic acid 2-{[trans-4-((1S)-1-Amino-2-oxo-2-pyrrolidin-1-yl-ethyl)-cyclohexyl]-amide}1-benzylamide] | glucose lowering / inhibition of glucose excursion (in words) ([3]; oral dosing, dose not stated): did not demonstrate inhibition
≤ 100 nM | 6.2 | N[C@H](C(=O)N1CCCC1)[C@H]1CC[C@H](NC(=O)c2nccnc2NCCc2ccccc2)CC1 [Example 27] | 
 | 1.1 | N[C@H](C(=O)N1CCCC1)[C@H]1CC[C@H](NC(=O)c2cnccn2)CC1 [reference compound] | 
 | 0.7 | Cc1cnc(C(=O)N[C@H]2CC[C@H]([C@H](N)C(=O)N3CCCC3)CC2)cn1 [reference compound] | 
